From ChEMBL document CHEMBL2021873, “Blocking HIV-1 entry by a gp120 surface binding inhibitor” (Bioorg Med Chem Lett, 2012)
pEC50, pIC50: −log10 of the molar value. Active and inactive are the calls of the source. The rule behind the calls is not given here.

Experiments:
[1] = test system: Human immunodeficiency virus 1; assay: Antiviral activity against Human immunodeficiency virus 1 YU-2; format: functional; details: isolate YU2
[2] = test system: Human immunodeficiency virus 1; assay: Competitive inhibition of Human immunodeficiency virus 1 3B gp120 glycan loop assessed as blockade of 2G12 antibody binding by ELISA
[3] = test system: Human immunodeficiency virus 1; assay: Antiviral activity against Human immunodeficiency virus 1 Clade B REJO4541.67 infected in human TZM-bl cells after 2 days by luciferase reporter gene analysis; format: functional, organism-based; details: Human immunodeficiency virus 1, Clade B REJO4541.67, TZM-bl, 48 h
[4] = test system: Human immunodeficiency virus 1; assay: Antiviral activity against BMS-378806-resistant Human immunodeficiency virus 1 DH012 T/P; format: functional, organism-based
[5] = test system: Human immunodeficiency virus 1; assay: Antiviral activity against Human immunodeficiency virus 1 Clade B 7165.18 infected in human TZM-bl cells after 2 days by luciferase reporter gene analysis; format: functional, organism-based; details: Human immunodeficiency virus 1, Clade B 7165.18, TZM-bl, 48 h
[6] = test system: Human immunodeficiency virus 1; assay: Competitive inhibition of Human immunodeficiency virus 1 3B gp120 V3 loop assessed as blockade of 447-52D antibody binding by ELISA
[7] = test system: Human immunodeficiency virus 1; assay: Antiviral activity against Human immunodeficiency virus 1 3B infected in human TZM-bl cells assessed as inhibition of viral replication at 1 uM by luminometric analysis; format: functional, organism-based; details: TDE = time-dependent effect
[8] = test system: Human immunodeficiency virus 1; assay: Antiviral activity against Human immunodeficiency virus 1 Clade C ZM109F.PB4 infected in human TZM-bl cells after 2 days by luciferase reporter gene analysis; format: functional, organism-based; details: Human immunodeficiency virus 1, Clade C ZM109F.PB4, TZM-bl, 48 h
[9] = test system: Human immunodeficiency virus 1; assay: Antiviral activity against Human immunodeficiency virus 1 Clade B WITO4160.33 infected in human TZM-bl cells after 2 days by luciferase reporter gene analysis; format: functional, organism-based; details: Human immunodeficiency virus 1, Clade B WITO4160.33, TZM-bl, 48 h
[10] = test system: Human immunodeficiency virus 1; assay: Antiviral activity against Human immunodeficiency virus 1 Clade B 5768.4 infected in human TZM-bl cells after 2 days by luciferase reporter gene analysis; format: functional, organism-based; details: Human immunodeficiency virus 1, Clade B 5768.4, TZM-bl, 48 h
[11] = test system: Human immunodeficiency virus 1; assay: Antiviral activity against Human immunodeficiency virus 1 Clade B SS1196.1 infected in human TZM-bl cells after 2 days by luciferase reporter gene analysis; format: functional, organism-based; details: Human immunodeficiency virus 1, Clade B SS1196.1, TZM-bl, 48 h
[12] = test system: Human immunodeficiency virus 1; assay: Antiviral activity against Human immunodeficiency virus 1 Clade B NL4.3 infected in human TZM-bl cells after 2 days by luciferase reporter gene analysis; format: functional, organism-based; details: Human immunodeficiency virus 1, Clade B NL4.3, TZM-bl, 48 h
[13] = test system: Human immunodeficiency virus 1; assay: Antiviral activity against Human immunodeficiency virus 1 Clade C Du123.6 infected in human TZM-bl cells after 2 days by luciferase reporter gene analysis; format: functional, organism-based; details: Human immunodeficiency virus 1, Clade C Du123.6, TZM-bl, 48 h
[14] = test system: Human immunodeficiency virus 1; assay: Antiviral activity against Human immunodeficiency virus 1 DH012; format: functional, organism-based
[15] = test system: Human immunodeficiency virus 1; assay: Antiviral activity against Human immunodeficiency virus 1 Clade B RHPA4259.7 infected in human TZM-bl cells after 2 days by luciferase reporter gene analysis; format: functional, organism-based; details: Human immunodeficiency virus 1, Clade B RHPA4259.7, TZM-bl, 48 h
[16] = test system: Human immunodeficiency virus 1; assay: Competitive inhibition of Human immunodeficiency virus 1 3B gp120 V3 loop assessed as blockade of 39F antibody binding by ELISA
[17] = test system: Human immunodeficiency virus 1; assay: Antiviral activity against Human immunodeficiency virus 1 Clade C Du151.2 infected in human TZM-bl cells after 2 days by luciferase reporter gene analysis; format: functional, organism-based; details: Human immunodeficiency virus 1, Clade C Du151.2, TZM-bl, 48 h
[18] = test system: Human immunodeficiency virus 1; assay: Competitive inhibition of Human immunodeficiency virus 1 3B gp120 V3 loop assessed as blockade of PK70 antibody binding by ELISA
[19] = test system: Human immunodeficiency virus 1; assay: Antiviral activity against Human immunodeficiency virus 1 Clade C Du422.1 infected in human TZM-bl cells after 2 days by luciferase reporter gene analysis; format: functional, organism-based; details: Human immunodeficiency virus 1, Clade C Du422.1, TZM-bl, 48 h
COS = assay: (§1) Inhibition of Human immunodeficiency virus 1 3B gp120 expressed in african green monkey COS cells assessed as inhibition of […] between gp120 and CD4 expressed on human TZM-bl cells by ELISA; format: cell-based
[20] = test system: Human immunodeficiency virus 1; assay: Antiviral activity against Human immunodeficiency virus 1 3B infected in human TZM-bl cells assessed as inhibition of viral replication at 0.33 uM by luminometric analysis; format: functional, organism-based; details: TDE = time-dependent effect
[21] = test system: Human immunodeficiency virus 1; assay: Antiviral activity against Human immunodeficiency virus 1 Clade C ZM197M.PB7 infected in human TZM-bl cells after 2 days by luciferase reporter gene analysis; format: functional, organism-based; details: Human immunodeficiency virus 1, Clade C ZM197M.PB7, TZM-bl, 48 h
[22] = test system: Human immunodeficiency virus 1; assay: Antiviral activity against BMS-378806-resistant Human immunodeficiency virus 1 YU-2 T/P; format: functional; details: Human immunodeficiency virus type 1 (isolate YU2)
[23] = as §1; format: cell-based

What does the source list for `CCCCOc1c2cc(C(=O)Nc3cc(C(=O)O)cc(C(=O)O)c3)cc1Cc1cc(C(=O)Nc3cc(C(=O)O)cc(C(=O)O)c3)cc(c1OCCCC)Cc1cc(C(=O)Nc3cc(C(=O)O)cc(C(=O)O)c3)cc(c1OCCCC)Cc1cc(C(=O)Nc3cc(C(=O)O)cc(C(=O)O)c3)cc(c1OCCCC)C2`?
Activity [1]: Active; inhibition [2]: inactive; pIC50 [3]: 5.72; Activity [4]: Active; pIC50 [5]: 5.35; inhibition [6]: Dose-dependent effect; Activity [7]: tde; pIC50 [8]: 5.41; pIC50 [9]: 5.74; pIC50 [10]: 5.39; pIC50 [11]: 5.55; pIC50 [12]: 6.19; pIC50 [13]: 5.85; Activity [14]: Active; pIC50 [15]: 5.51; inhibition [16]: Active; pIC50 [17]: 5.51; inhibition [18]: Active; pIC50 [19]: 5.74; inhibition (COS): Dose-dependent effect; Activity [20]: tde; pIC50 [21]: 5.57; Activity [22]: Active

Which inhibition [6] does the source give for `CCCCOc1c2cc(C(=O)Nc3cc(C(=O)O)cc(C(=O)OCc4ccccc4)c3)cc1Cc1cc(C(=O)Nc3cc(C(=O)O)cc(C(=O)OCc4ccccc4)c3)cc(c1OCCCC)Cc1cc(C(=O)Nc3cc(C(=O)O)cc(C(=O)OCc4ccccc4)c3)cc(c1OCCCC)Cc1cc(C(=O)Nc3cc(C(=O)O)cc(C(=O)OCc4ccccc4)c3)cc(c1OCCCC)C2` here?
Its inhibition is “inactive”.

And the pEC50 [23]?
The pEC50 was under 4.15.
